Converted amounts (≈) assume the structure as drawn.
Experiments:
VRS4 = assay: broth microdilution MIC/MBC; assay type: cell-based; settings: Staphylococcus aureus, VRS4, vancomycin-resistant S. aureus; for MBC: read-out: MBC; for MIC: read-out: MIC
Procedure: (§1) The broth microdilution assay was employed to determine the MIC of compounds 1, 2, and vancomycin against five MRSA strains, four VRSA strains, one highly mupirocin-resistant S. aureus strain, one biofilm-forming S. aureus (ATCC 6538) strain, and one biofilm-forming methicillin-resistant S. epidermidis strain, as per the guidelines of the Clinical and Laboratory Standards Institute (CLSI). […] The MBC was determined by plating an aliquot (5 μL) from wells with no growth onto TSA plates. Plates were incubated at 37 °C for 19 hours before recording the MBC (concentration where no growth was observed on TSA plates).

VRS11a = assay: broth microdilution MIC/MBC; assay type: cell-based; settings: Staphylococcus aureus, VRS11a, vancomycin-resistant S. aureus; for MBC: read-out: MBC; for MIC: read-out: MIC
Procedure: as §1

VRS7 = assay: broth microdilution MIC/MBC; assay type: cell-based; settings: Staphylococcus aureus, VRS7, vancomycin-resistant S. aureus; for MBC: read-out: MBC; for MIC: read-out: MIC
Procedure: as §1

MRSA NRS387 (USA800) = assay: broth microdilution MIC/MBC; assay type: cell-based; settings: Staphylococcus aureus, MRSA NRS387 (USA800); for MBC: read-out: MBC; for MIC: read-out: MIC
Procedure: as §1

MRSA NRS484 (USA1100) = assay: broth microdilution MIC/MBC; assay type: cell-based; settings: Staphylococcus aureus, MRSA NRS484 (USA1100); for MBC: read-out: MBC; for MIC: read-out: MIC
Procedure: as §1

MRSA NRS123 (USA400) = assay: broth microdilution MIC/MBC; assay type: cell-based; settings: Staphylococcus aureus, MRSA NRS123 (USA400); for MBC: read-out: MBC; for MIC: read-out: MIC
Procedure: as §1

MRSA NRS384 (USA300) = assay: broth microdilution MIC/MBC; assay type: cell-based; settings: Staphylococcus aureus, MRSA NRS384 (USA300); for MBC: read-out: MBC; for MIC: read-out: MIC
Procedure: as §1

MRSA NRS483 (USA1000) = assay: broth microdilution MIC/MBC; assay type: cell-based; settings: Staphylococcus aureus, MRSA NRS483 (USA1000); for MBC: read-out: MBC; for MIC: read-out: MIC
Procedure: as §1

[1] = aqueous solubility assessment (turbidity); assay type: physicochemical; settings: aqueous buffer, kinetic from dmso stock
Procedure: The solutions were diluted 100-fold into PBS in a 96-well plate and mixed. The absorbance of the PBS-containing plate was measured prior to addition of the test agents to determine the background absorbance. After two hours, the presence of precipitate was detected by turbidity (absorbance at 540 nm). […] The solubility limit is reported as the highest experimental concentration with no evidence of turbidity.

MRSA USA300 (NRS384) = assay: time-kill assay; assay type: cell-based, Staphylococcus aureus; settings: 4 × MIC; for reduction of MRSA CFU/mL: within two hours
[2] = test system: S. aureus ATCC 6538 biofilm; assay: biofilm mass disruption, crystal violet reporter assay; assay type: cell-based, Staphylococcus aureus; settings: all concentrations tested
Procedure: (§2) Compounds 1, 2, and vancomycin were examined for their ability to eradicate mature staphylococcal biofilm using the microtiter dish biofilm formation assay. S. epidermidis NRS101 and S. aureus ATCC 6538 were selected as the test organisms given their ability to form strong adherent biofilm. An overnight culture of bacteria was diluted (1:100 in TSB + 1% glucose) and transferred to a 96-well plate. The plate was incubated for 24 hours at 37 °C in order to form adherent biofilm on the surface of the plate wells. The medium containing the bacterial suspension was removed and the biofilm was washed with sterile PBS to remove planktonic cells. Compounds 1, 2, or vancomycin (from 128 to 1 μg/mL), in triplicate, in TSB were incubated with the biofilm for 24 hours at 37 °C.
(§3) Compounds were subsequently removed. The biofilm was washed with PBS and then stained with 1% (w/v) crystal violet for 40 minutes. The stain was removed and wells were washed with sterile PBS. Wells were next decolorized using 95% ethanol. The optical density of each well at 595 nm was measured using a microplate reader.

MRSA USA400 (NRS123) [3] = assay: MIC in presence and absence of human serum albumin; assay type: cell-based, Staphylococcus aureus; settings: for increase in MIC in the presence of HSA: MRSA USA400, 4% human serum albumin vs none; for MIC: Staphylococcus aureus, TSB
Procedure: The broth microdilution assay presented above was used to assess if compounds 1 and 2 bind to a major component of blood (human serum albumin) thus limiting the free fraction of drug available to exert its antibacterial effect. […] CaCl2 ([…]) was added to wells containing daptomycin, per the CLSI guidelines.

[4] = test system: S. aureus ATCC 6538 biofilm; assay: bacterial CFU inside mature biofilm post-treatment; assay type: cell-based, Staphylococcus aureus; settings: 24 hours
Procedure: as §2
(§4) For enumeration of viable CFU inside the biofilm, compounds were removed, wells were washed with sterile PBS, and treated with 0.25% Trypsin-2.21 mM EDTA solution as described elsewhere. The solution containing cells was transferred to a 96-well plate, serially diluted in PBS, and plated on TSA. Plates were incubated at 37 °C for 19 hours before viable CFU were counted. Data are presented as average log10(CFU/mL) of bacteria present in the biofilm post-treatment.

MRSA USA400 (NRS123) [5] = assay: multi-step resistance selection; assay type: cell-based, Staphylococcus aureus; settings: for increase in MIC after fourteen passages: MRSA USA400 (NRS123), fourteen passages over two weeks
Procedure: To assess MRSA’s ability to develop resistance to the diphenylurea compounds after repeated exposure, a multi-step resistance selection experiment was conducted. […] Resistance was classified as a greater than four-fold increase in the initial MIC, as reported elsewhere.

[6] = test system: S. epidermidis NRS101 biofilm; assay: bacterial CFU inside mature biofilm post-treatment; assay type: cell-based, Staphylococcus epidermidis; settings: 24 hours
Procedure: as §2, §4

[7] = parameters: method as in PMID 28249208; settings: human liver microsomes; ref [21]; cited from earlier work
[8] = test system: S. epidermidis NRS101 biofilm; assay: biofilm mass disruption, crystal violet reporter assay; assay type: cell-based, Staphylococcus epidermidis; settings: even at 128 μg/mL, 24-hour treatment
Procedure: as §2, §3

[9] = test system: clinically-relevant strains of MRSA and VRSA; assay: broth microdilution MIC/MBC, panel summary; assay type: cell-based; settings: Staphylococcus aureus, summary over the MRSA isolates of Table 1; read-out: concentration inhibiting growth of MRSA isolates (MIC)
Procedure: as §1

[10] = test system: human keratinocyte cell line; parameters: method as in PMID 28249208; settings: human keratinocytes; ref [21]; cited from earlier work
[11] = 4% human serum albumin, read-out: MIC vs. MRSA USA400 (+HSA)
[12] = without human serum albumin, read-out: MIC vs. MRSA USA400 (-HSA)

| Structure (SMILES) | MBC (VRS4) | MIC (VRS4) | MBC (VRS11a) | MIC (VRS11a) | MBC (VRS7) | MIC (VRS7) | MBC (MRSA NRS387 (USA800)) | MIC (MRSA NRS387 (USA800)) | MBC (MRSA NRS484 (USA1100)) | MIC (MRSA NRS484 (USA1100)) | MBC (MRSA NRS123 (USA400)) | MIC (MRSA NRS123 (USA400)) | MBC (MRSA NRS384 (USA300)) | MIC (MRSA NRS384 (USA300)) | MBC (MRSA NRS483 (USA1000)) | MIC (MRSA NRS483 (USA1000)) | solubility at 2 h [1] | time to completely eradicate a high inoculum of MRSA (~10^6 CFU/mL) (MRSA USA300 (NRS384)) | reduction of MRSA CFU/mL (MRSA USA300 (NRS384)) | change in optical density of S. aureus biofilm (biofilm mass) [2] | further results |
| --- | --- | --- | --- | --- | --- | --- | --- | --- | --- | --- | --- | --- | --- | --- | --- | --- | --- | --- | --- | --- | --- |
| C/C(=N\NC(=N)N)c1ccc(NC(=O)Nc2ccc(OCCC(C)C)cc2)cc1 [compound 1] | 8 µg/mL (≈ 20.2 µM) | 8 µg/mL (≈ 20.2 µM) | 4 µg/mL (≈ 10.1 µM) | 4 µg/mL (≈ 10.1 µM) | 8 µg/mL (≈ 20.2 µM) | 8 µg/mL (≈ 20.2 µM) | 4 µg/mL (≈ 10.1 µM) | 4 µg/mL (≈ 10.1 µM) | 8 µg/mL (≈ 20.2 µM) | 8 µg/mL (≈ 20.2 µM) | 4 µg/mL (≈ 10.1 µM) | 4 µg/mL (≈ 10.1 µM) | 4 µg/mL (≈ 10.1 µM) | 4 µg/mL (≈ 10.1 µM) | 4 µg/mL (≈ 10.1 µM) | 4 µg/mL (≈ 10.1 µM) | 23.9 µg/mL (≈ 60.4 µM) | within four hours | 3 log10 | no change | increase in MIC in the presence of HSA (MRSA USA400 (NRS123) [3]): seven-fold; MIC (MRSA USA400 (NRS123) [3]; [11]): 32 µg/mL (≈ 80.7 µM); MIC (MRSA USA400 (NRS123) [3]; [12]): 4 µg/mL (≈ 10.1 µM); reduction in bacterial CFU within S. aureus biofilm ([4]; 64 μg/mL): 0.9 log10; reduction in bacterial CFU within S. aureus biofilm ([4]; 128 μg/mL): 3.0 log10; increase in MIC after fourteen passages (MRSA USA400 (NRS123) [5]): No increase; MIC (MRSA USA400 (NRS123) [5]; Staphylococcus aureus, read-out: initial MIC): 8 µg/mL (≈ 20.2 µM); reduction in bacterial CFU within S. epidermidis biofilm ([6]; 64 μg/mL): 1.0 log10; reduction in bacterial CFU within S. epidermidis biofilm ([6]; 128 μg/mL): 2.84 log10; reduction in bacterial CFU within S. epidermidis biofilm ([6]; 8, 16, and 32 μg/mL, vs untreated control): no reduction; intrinsic half-life [7]: exceeded four hours; decrease in S. epidermidis biofilm mass [8]: no decrease; MIC [9]: ≥ 4 µg/mL; non-toxic up to (concentration) [10]: 32 µg/mL |
| C/C(=N\NC(=N)N)c1ccc(NC(=O)Nc2ccc(OC3CCCCCC3)cc2)cc1 [compound 2] | 16 µg/mL (≈ 37.9 µM) | 16 µg/mL (≈ 37.9 µM) | 8 µg/mL (≈ 18.9 µM) | 8 µg/mL (≈ 18.9 µM) | 16 µg/mL (≈ 37.9 µM) | 16 µg/mL (≈ 37.9 µM) | 16 µg/mL (≈ 37.9 µM) | 8 µg/mL (≈ 18.9 µM) | 16 µg/mL (≈ 37.9 µM) | 16 µg/mL (≈ 37.9 µM) | 8 µg/mL (≈ 18.9 µM) | 8 µg/mL (≈ 18.9 µM) | 16 µg/mL (≈ 37.9 µM) | 8 µg/mL (≈ 18.9 µM) | 16 µg/mL (≈ 37.9 µM) | 16 µg/mL (≈ 37.9 µM) | 5.15 µg/mL (≈ 12.2 µM) | within four hours | 3 log10 | no change | increase in MIC in the presence of HSA (MRSA USA400 (NRS123) [3]): 15 fold; MIC (MRSA USA400 (NRS123) [3]; [11]): 128 µg/mL (≈ 303 µM); MIC (MRSA USA400 (NRS123) [3]; [12]): 8 µg/mL (≈ 18.9 µM); reduction in bacterial CFU within S. aureus biofilm ([4]; 64 μg/mL): 0.8 log10; reduction in bacterial CFU within S. aureus biofilm ([4]; 128 μg/mL): 1.76 log10; increase in MIC after fourteen passages (MRSA USA400 (NRS123) [5]): No increase; reduction in bacterial CFU within S. epidermidis biofilm ([6]; all concentrations tested (from 8 to 128 μg/mL)): unable to reduce; intrinsic half-life [7]: exceeded four hours; decrease in S. epidermidis biofilm mass [8]: no decrease; MIC [9]: ≥ 4 µg/mL; non-toxic up to (concentration) [10]: 64 µg/mL |
